How the values were obtained:
MCF-7 = assay: Cytotoxicity of alpha-humulene and isocaryophyllene alone or combined with beta-caryophyllene; format: cell-based, human
Procedure: Combinations of beta-caryophyllene and two other antitumor agents, isocaryophyllene and α-humulene, were also tested as described above with some adaptations. 5×10^3 cells per well were allowed to adhere for 16 hours before treatment. The final concentration of solvent in the culture medium was maintained at 0.5% (volume/volume) to avoid toxicity. These combinations were tested on MCF-7.

A-549 (lung cancer) = assay: Chou and Talalay combination assay with beta-caryophyllene; format: cell-based, human; conditions: anticancer drug in combination with beta-caryophyllene; Chou and Talalay CI; 48 h
Procedure: (§1) Each solution was prepared fresh and use within 1 hour after preparation.
(§2) Cells were then harvested using trypsine-EDTA. Cells were counted using a hemocytometer and resuspended in DMEM+10% FBS medium.
(§3) Proliferation assay: Increasing concentrations of the anticancer agents and/or beta-caryophyllene were added to 96-well plate (100 μL per well). The final concentration of solvent in the culture medium was maintained below 0.5% (volume/volume) to avoid solvent toxicity.
(§4) The cells were incubated for 48 h at 37° C. and 5% CO2. Cytotoxicity was assessed using the resazurin reduction test (O'Brien et al., 2000). Fluorescence was measured on an automated 96-well Fluoroskan Ascent FI™ plate reader (Labsystems) using excitation and emission wavelengths of 530 nm and 590 nm, respectively. Resazurin was then removed.
(§5) Microplates were frozen at −20° C. overnight. Plates were thawed, a volume of 100 μl of 0.01% SDS in water was added to the wells, the plates were shaken at room temperature for 3 hours and then frozen once more at −20° C. overnight. […] Plates were shaken in the dark (at room temperature) for at least 2 hours, and fluorescence was measured on an automated 96-well Fluoroskan Ascent FI™ plate reader (Labsystems) using excitation and emission wavelengths of 360 nm and 460 nm, respectively.
(§6) Results were analyzed using the Chou and Talalay method (9) and may be interpreted as follow: Cl>1 represents an antagonist effect of beta-caryophyllene with the corresponding anticancer agent; Cl=1 represents an additive effect of beta-caryophyllene with the corresponding anticancer agent; Cl<1 represents a potentiating effect of beta-caryophyllene with the corresponding anticancer agent.

DLD-1 (colon cancer) = assay: as above; format: cell-based, human; conditions: anticancer drug in combination with beta-caryophyllene; Chou and Talalay CI; 48 h
Procedure: as §1, §2, §3, §4, §5, §6

MCF-7 (breast cancer) = assay: as above; format: cell-based, human; conditions: anticancer drug in combination with beta-caryophyllene; Chou and Talalay CI; 48 h
Procedure: as §1, §2, §3, §4, §5, §6

[1] = tested on: MDA-MB-231 (breast cancer); assay: as above; format: cell-based, human; conditions: anticancer drug in combination with beta-caryophyllene; Chou and Talalay CI; 48 h
Procedure: as §1, §2, §3, §4, §5, §6

PA-1 (ovary cancer) = assay: as above; format: cell-based, human; conditions: anticancer drug in combination with beta-caryophyllene; Chou and Talalay CI; 48 h
Procedure: as §1, §2, §3, §4, §5, §6

PC-3 (prostate cancer) = assay: as above; format: cell-based, human; conditions: anticancer drug in combination with beta-caryophyllene; Chou and Talalay CI; 48 h
Procedure: as §1, §2, §3, §4, §5

B16 (murine melanoma) = assay: as above; format: cell-based; conditions: anticancer drug in combination with beta-caryophyllene; Chou and Talalay CI; 48 h
Procedure: as §1, §2, §3, §4, §5, §6

[2] = tested on: GL-261 (murine glioblastoma); assay: as above; format: cell-based; conditions: anticancer drug in combination with beta-caryophyllene; Chou and Talalay CI; 48 h
Procedure: as §1, §2, §3, §4, §5, §6

MEL-2 (human melanoma) = assay: as above; format: cell-based; conditions: anticancer drug in combination with beta-caryophyllene; Chou and Talalay CI; 48 h
Procedure: as §1, §2, §3, §4, §5, §6

[3] = tested on: U-251 (human glioblastoma); assay: as above; format: cell-based; conditions: anticancer drug in combination with beta-caryophyllene; Chou and Talalay CI; 48 h
Procedure: as §1, §2, §3, §4, §5, §6

[4] = combined with 10 μg/ml of beta-caryophyllene

Compound | IC50 (MCF-7; [4]) [µg/mL] | IC50 (MCF-7; used alone) [µg/mL] | Potentiating activity A-549 (A-549 (lung cancer)) | Potentiating activity DLD-1 (DLD-1 (colon cancer)) | Potentiating activity MCF-7 (MCF-7 (breast cancer)) | Potentiating activity MDA [1] | Potentiating activity PA-1 (PA-1 (ovary cancer)) | Potentiating activity PC-3 (PC-3 (prostate cancer)) | Potentiating activity B16 (B16 (murine melanoma)) | Potentiating activity GL-261 [2] | Potentiating activity MEL-2 (MEL-2 (human melanoma)) | Potentiating activity U-251 [3]
C=C1CC/C=C(/C)CC[C@@H]2[C@@H]1CC2(C)C [isocaryophyllene] | 16 | 30 | – | – | – | – | – | – | – | – | – | –
C/C1=C\CC/C(C)=C/CC(C)(C)/C=C/C1 [∝-humulene, α-humulene] | 15 | 25 | – | – | – | – | – | – | – | – | – | –
vinblastine sulfate salt | – | – | (1) (Very High: CI equal or below 1 at IC20 and Cl below 0.6 to IC50) | (1) (Very High: CI equal or below 1 at IC20 and Cl below 0.6 to IC50) | (1) (Very High: CI equal or below 1 at IC20 and Cl below 0.6 to IC50) | (1) (Very High: CI equal or below 1 at IC20 and Cl below 0.6 to IC50) | (1) (Very High: potentiating or additive activity to IC20 and CI < 0.6 to IC50) | (3) (Moderate: 0.5 < CI < 0.8 to IC50) | (1) (Very High: potentiating or additive activity to IC20 and CI < 0.6 to IC50) | (1) (Very High: potentiating or additive activity to IC20 and CI < 0.6 to IC50) | (1) (Very High: potentiating or additive activity to IC20 and CI < 0.6 to IC50) | (1) (Very High: potentiating or additive activity to IC20 and CI < 0.6 to IC50)
vincristine sulfate salt | – | – | (2) (High: CI below 0.5 at IC50) | (1) (Very High: CI equal or below 1 at IC20 and Cl below 0.6 to IC50) | (1) (Very High: CI equal or below 1 at IC20 and Cl below 0.6 to IC50) | (3) (Moderate: 0.5 < CI < 0.8 at IC50) | (1) (Very High: potentiating or additive activity to IC20 and CI < 0.6 to IC50) | (1) (Very High: potentiating or additive activity to IC20 and CI < 0.6 to IC50) | (1) (Very High: potentiating or additive activity to IC20 and CI < 0.6 to IC50) | (1) (Very High: potentiating or additive activity to IC20 and CI < 0.6 to IC50) | (1) (Very High: potentiating or additive activity to IC20 and CI < 0.6 to IC50) | (1) (Very High: potentiating or additive activity to IC20 and CI < 0.6 to IC50)

Reference: US20110008465A1, “SESQUITERPENE FORMULATIONS, KITS AND METHODS OF USE THEREOF” (priority 2007, published 2011)
